# Test results from patent EP2405274A1, “Monitoring anticoagulant therapy and identifying reversible direct factor Xa inhibitors” (Good biomarker Sciences B.V., priority 2010, dated 2012).
# Assays:
# Type in all cases: biochemical
# [1] = test system: pooled human citrated plasma; experiment: Prothrombin time (PT) clotting assay with Simplastin excel S; set-up: Rivaroxaban-prolonged PT / Ratio range: dose or concentration left out as unconfirmed
# Experimental: (§1) The experiments here below were performed with pooled human citrated plasma which was made from a minimum of individual contributions of 6 apparently healthy volunteers. Blood was collected ( 9 vol blood/ 1 volume 0.11 M citrate) in tubes and mixed directly after withdrawal. The Blood was cooled by submersion in ice water and centrifuged in a cooled, swing-out centrifuge for at least 20 minutes at 2000 x g. Subsequently, plasma was carefully separated from the cells and collected in an intermediate , cooled plastic tube. The collected plasma was mixed and centrifuged similarly after which platelet-poor-plasma was collected, aliquoted and after snap-freezing stored at -60 °C or below.
# (§2) Different PT assays were used using PT assays commercially available as Simplastin excel S (BioMerieux), Innovin (Dade Behring), Neoplastin CI plus (Stago), Recombiplastin (Instrumentation Laboratories) and Thromborel S (Dade Behring). In each case The reagent consisted of Tissue factor, lipid and CaCl2. Tests were performed in a clotting analyser (AMAX Destiny, Kordia Lifesciences, Leiden, NL). In each case a cuvette was filled with 100 µl plasma and incubated for 1 minute at 37 °C. Pre-warmed PT reagent was added (200 µl) and recording of clotting was started. The AMAX recorded blood clotting by reduction in speed of a turning rod (mechanical detection).
# (§3) For spiking experiments with rivaroxaban (Xarelto, from Bayer), the plasma sample was spiked with rivaroxaban at different concentrations between […], and the clotting times were again recorded using the different PT reagents. The results are plotted in Figure 1.
# [2] = test system: pooled human citrated plasma; experiment: Prothrombin time (PT) clotting assay with Innovin
# Experimental: as §1, §2, §3
# [3] = test system: pooled human citrated plasma; experiment: Prothrombin time (PT) clotting assay with Neoplastin CI plus
# Experimental: as §1, §2, §3
# [4] = test system: pooled human citrated plasma; experiment: Prothrombin time (PT) clotting assay with Recombiplastin
# Experimental: as §1, §2, §3
# [5] = test system: pooled human citrated plasma; experiment: Prothrombin time (PT) clotting assay with Thromborel S
# Experimental: as §1, §2, §3
# [6] = test system: pooled human citrated plasma; experiment: Prothrombin time (PT) clotting assay with Thromboplastin S
# Experimental: as §1
# (§4) Different PT assays were used using PT assays commercially available as Simplastin excel S (BioMerieux), Innovin (Dade Behring), Neoplastin CI plus (Stago), Recombiplastin (Instrumentation Laboratories) and Thromborel S (Dade Behring). In each case The reagent consisted of Tissue factor, lipid and CaCl2. […] The AMAX recorded blood clotting by reduction in speed of a turning rod (mechanical detection).
# (§5) For spiking experiments with rivaroxaban (Xarelto, from Bayer), the plasma sample was spiked with rivaroxaban at different concentrations between […], and the clotting times were again recorded using the different PT reagents. […]
# [7] = test system: pooled human citrated plasma; experiment: Prothrombin time (PT) clotting assay with PT fibrinogen
# Experimental: as §1, §2, §3
# (§6) Example 1a was repeated with PT clotting assays Thromboplastin S (Biopool, through Trinity),PT fibrinogen (Instrumentation Laboratories), PT fibrinogen recombinant (Instrumentation Laboratories), Thromboplastin C plus ( Siemens) and Simplastin Excel (Biomerieux).
# [8] = test system: pooled human citrated plasma; experiment: Prothrombin time (PT) clotting assay with PT fibrinogen recombinant
# Experimental: as §1, §2, §3, §6
# [9] = test system: pooled human citrated plasma; experiment: Prothrombin time (PT) clotting assay with Thromboplastin C plus
# Experimental: as §1, §2, §3, §6
# [10] = test system: pooled human citrated plasma; experiment: Prothrombin time (PT) clotting assay with Simplastin Excel
# Experimental: as §1, §2, §3, §6
# [11] = test system: pooled human citrated plasma; experiment: PT clotting assay with Simplastin Excel S in presence of RVV-V; conditions: RVV-V added prior to the clotting experiment, Figure 2
# Experimental: as §1
# as §4, with “detection). […]” for “detection).”
# as §5
# [12] = test system: pooled human citrated plasma; experiment: PT clotting assay with Innovin in presence of RVV-V; conditions: Figure 2
# Experimental: as §1
# as §4, with “detection). […]” for “detection).”
# as §5
# [13] = 200 ng/ml rivaroxaban spiked in plasma
# [14] = 600 ng/ml rivaroxaban spiked in plasma
# [15] = PT ratio compared to reference value ("0"), up to 600 ng/ml rivaroxaban
structure (smiles),measurement,setting,value
"O=C(NC[C@H]1CN(c2ccc(N3CCOCC3=O)cc2)C(=O)O1)c1ccc(Cl)s1 [rivaroxaban, Rivaroxaban]",Sensitivity of PT assay for rivaroxaban,"[1]; Simplastin Excel S and/or Triniclot Excel S, within the therapeutic range (ratio window 2 - 5)",high sensitivity
same,Rivaroxaban-prolonged PT,"[1]; Simplastin Excel S, without RVV-V, 200 -",80 s
same,Prothrombin time,"[1]; Simplastin excel S, 200 µg/ml rivaroxaban spiked in plasma",41.0 s
same,Ratio range,"[1]; Simplastin excel S, PT ratio compared to reference value (""0""), up",1.0-5.0
same,Prothrombin time,"[1]; Simplastin excel S, spiked in plasma",80.8 s
same,Prothrombin time,[2]; [13],12.0 s
same,Prothrombin time,[2]; [14],17.1 s
same,Ratio range,[2]; [15],1.0- 1.8
same,Change in PT for rivaroxaban,"[2]; without RVV-V, Figure 2",no significant change in PT
same,Prothrombin time,[3]; [13],20.0 s
same,Prothrombin time,[3]; [14],35.0 s
same,Ratio range,[3]; [15],1.0-2.6
same,Prothrombin time,[4]; [13],16.8 s
same,Prothrombin time,[4]; [14],26.2 s
same,Ratio range,[4]; [15],1.0-2.5
same,Prothrombin time,[5]; [13],21.1 s
same,Prothrombin time,[5]; [14],26.7 s
same,Ratio range,[5]; [15],1.0-1.7
same,Prothrombin time,[6]; [14],51.6 s
same,Ratio range,[6]; [15],1.0-2.4
same,Prothrombin time,[7]; [13],38.5 s
same,Prothrombin time,[7]; [14],62.7 s
same,Ratio range,[7]; [15],1.0-2.8
same,Prothrombin time,[8]; [13],32.9 s
same,Prothrombin time,[8]; [14],45.4 s
same,Ratio range,[8]; [15],1.0-1.9
same,Prothrombin time,[9]; [13],44.3 s
same,Prothrombin time,[9]; [14],73.5 s
same,Ratio range,[9]; [15],1.0-3.1
same,Prothrombin time,[10]; [13],40.0 s
same,Prothrombin time,[10]; [14],63.1 s
same,Ratio range,[10]; [15],1.0-3.1
same,Effect of RVV-V on prolonged PT,[11],completely vanished
same,Change in PT for rivaroxaban,[12],no significant change in PT
